Molecules are shown by their SMILES. A value given as a limit tells only on which side of the number the result lay.

One assay deals with Ascaridia galli (L3) and Oesophagostumum dentatum (L3 and L4) larvae. Description: In vitro anthelmintic larval test, minimum effective concentration by microscopic examination. In kind it is cell-based. Particulars: activity against one or both of the nematodes (A. galli L3; O. dentatum L3, L4), 96-well plates, 20 larvae per well, vs DMSO-control, read-out: minimum effective concentration (MEC). As for the experimental part:
C: Biological Examples Efficacy Against Ascaridia galli and Oesophagostomum dentatum
Anthelmintic effects of compounds of this invention (numbers refer to compound numbers in Table I) were tested in vitro using gut-welling larval stages of two parasitic nematode species: Ascaridia galli (intestinal roundworm of chicken), larval stage 3 (“L3”); and Oesophagostumum dentatum (nodular worm of swine), larval stages 3 and 4 (respectively “L3” and “L4”). When conducting these experiments, DMSO-solutions of various concentrations of compounds of this invention were prepared and incubated in 96-well microtiter plates. The parasites were then distributed at 20 larvae per well. The anthelmintic effects were classified by microscopic examination. The microscopic examination included assessing mortality, damage, motility, progression of development, and neutral red uptake by the larvae in comparison to a DMSO-control.
As for `O=C(c1ccnc(Cl)c1)N1CC2(CCN(C/C=C/c3ccc(Cl)cc3Cl)CC2)c2cc(Sc3ccc(F)cc3)ccc21` [Compound 29, (2-chloro-4-pyridyl)-[1′-[(E)-3-(2,4-dichlorophenyl)allyl]-5-(4-fluorophenyl)sulfanyl-spiro[indoline-3,4′-piperidine]-1-yl]methanone], the minimal effective concentration was at most 50 µM.

`Cc1cc(C(=O)N2CC3(CCN(C/C=C/c4ccc(F)cc4F)CC3)c3cc(Sc4ccc(F)cc4)ccc32)cc(Cl)n1` [Compound 39, (2-chloro-6-methyl-4-pyridyl)-[1′-[(E)-3-(2,4-difluorophenyl)allyl]-5-(4-fluorophenyl)sulfanyl-spiro[indoline-3,4′-piperidine]-1-yl]methanone]: the minimal effective concentration was at most 50 µM.

As to `O=C(c1ccnc(Cl)c1)N1CC2(CCN(C/C=C/c3ccc(F)cc3F)CC2)c2cc(Sc3ccc(F)cc3)ccc21` [Compound 38, (2-chloro-4-pyridyl)-[1′-[(E)-3-(2,4-difluorophenyl)allyl]-5-(4-fluorophenyl)sulfanyl-spiro[indoline-3,4′-piperidine]-1-yl]methanone], the minimal effective concentration is at most 50 µM.

As for `Cc1ccc(/C=C/CN2CCC3(CC2)CN(C(=O)c2ccnc(Cl)c2)c2ccc(Sc4ccc(F)cc4)cc23)cc1` [Compound 17, (2-chloro-4-pyridyl)-[5-(4-fluorophenyl)sulfanyl-1′-[(E)-3-(p-tolyl)allyl]spiro[indoline-3,4′-piperidine]-1-yl]methanone], the minimal effective concentration was at most 50 µM.

Regarding `Cc1cc(C(=O)N2CC3(CCN(C/C=C/c4ccc(Cl)cc4)CC3)c3cc(Sc4ccc(F)cc4)ccc32)cc(Cl)n1` [Compound 27, (2-chloro-6-methyl-4-pyridyl)-[1′-[(E)-3-(4-chlorophenyl)allyl]-5-(4-fluorophenyl)sulfanyl-spiro[indoline-3,4′-piperidine]-1-yl]methanone], the minimal effective concentration was at most 50 µM.

On to `Cc1cc(C(=O)N2CC3(CCN(C/C=C/c4ccc(Cl)cc4Cl)CC3)c3cc(Sc4ccc(F)cc4)ccc32)ccn1` [Compound 31, [1′-[(E)-3-(2,4-dichlorophenyl)allyl]-5-(4-fluorophenyl)sulfanyl-spiro[indoline-3,4′-piperidine]-1-yl]-(2-methyl-4-pyridyl)methanone], for which the minimal effective concentration was at most 50 µM.

As for `Cc1cc(C(=O)N2CC3(CCN(C/C=C/c4ccc(F)cc4F)CC3)c3cc(Sc4ccc(F)cc4)ccc32)ccn1` [Compound 40, [1′-[(E)-3-(2,4-difluorophenyl)allyl]-5-(4-fluorophenyl)sulfanyl-spiro[indoline-3,4′-piperidine]-1-yl]-(2-methyl-4-pyridyl)methanone], the minimal effective concentration was at most 50 µM.

As for `Cc1cc(C(=O)N2CC3(CCN(C/C=C/c4ccc(F)c(F)c4)CC3)c3cc(Sc4ccc(F)cc4)ccc32)cc(Cl)n1` [Compound 33, (2-chloro-6-methyl-4-pyridyl)-[1′-[(E)-3-(3,4-difluorophenyl)allyl]-5-(4-fluorophenyl)sulfanyl-spiro[indoline-3,4′-piperidine]-1-yl]methanone], the minimal effective concentration was at most 50 µM.

For `O=C(c1ccnc(Cl)c1)N1CC2(CCN(C/C=C/c3ccc(Cl)c(Cl)c3)CC2)c2cc(Sc3ccc(F)cc3)ccc21` [Compound 23, (2-chloro-4-pyridyl)-[1′-[(E)-3-(3,4-dichlorophenyl)allyl]-5-(4-fluorophenyl)sulfanyl-spiro[indoline-3,4′-piperidine]-1-yl]methanone], the minimal effective concentration is at most 50 µM.

The assay is the same for the next values; noted with them: read-out: minimum effective concentration (MEC).
For the molecule `Cc1cc(C(=O)N2CC3(CCN(C/C=C/c4ccccc4)CC3)c3cc(Sc4ccc(F)cc4)ccc32)cc(Cl)n1` [Compound 12, (2-chloro-6-methyl-4-pyridyl)-[1′-[(E) -cinnamyl]-5-(4-fluorophenyl)sulfanyl-spiro[indoline-3,4′-piperidine]-1-yl]methanone], the minimal effective concentration was at most 50 µM.

With `O=C(c1ccnc(Cl)c1)N1CC2(CCN(C/C=C/c3ccccc3)CC2)c2cc(Sc3ccc(F)cc3)ccc21` [Compound 11, (2-chloro-4-pyridyl)-[1′-[(E)-cinnamyl]-5-(4-fluorophenyl)sulfanyl-spiro[indoline-3,4′-piperidine]-1-yl]methanone], the minimal effective concentration is at most 50 µM.

These data come from US9096599B2, “Spiroindoline compounds” (Intervet Inc., priority 2011, dated 2015).
